Measurements taken from US8674109B2, “Pesticidal compositions” (Dow AgroSciences, LLC., priority 2009, dated 2014).

Legend:
Type in all cases: in vivo
[1] = system: beet armyworm (BAW; Spodoptera exigua: Lepidoptera); experiment: Insecticidal test for beet armyworm, 128-well diet tray assay
Experimental: Insecticidal Test for Beet Armyworm (Spodoptera exigua)
(§1) Bioassays on beet armyworm (BAW; Spodoptera exigua: Lepidoptera) were conducted using a 128-well diet tray assay. Three to five second instar BAW larvae were placed in each well (3 mL) of the diet tray that had been previously filled with 1 mL of artificial diet to which 50 μg/cm^2 of the test compound (dissolved in 50 μL of 90:10 acetone-water mixture) had been applied (to each of eight wells) and then allowed to dry. Trays were covered with a clear self-adhesive cover, and held at 25° C., 14:10 light-dark for six days. Percent mortality was recorded for the larvae in each well; activity in the eight wells was then averaged.

[2] = system: green peach aphid (Myzus persicae); experiment: Insecticidal test for green peach aphid in foliar spray assay on cabbage seedlings
Experimental: Insecticidal Test for Green Peach Aphid (Myzus persicae) in Foliar Spray Assay
Cabbage seedlings grown in 3-inch pots, with 2-3 small (3-5 cm) true leaves, were used as test substrate. The seedlings were infested with 20-50 green peach aphids (wingless adult and nymph) one day prior to chemical application. Four pots with individual seedlings were used for each treatment. Compounds (2 mg) were dissolved in 2 mL of acetone/methanol (1:1) solvent, forming stock solutions of 1000 ppm. The stock solutions were diluted 5× with 0.025% Tween 20 in H2O to obtain the solution at 200 ppm. A hand-held Devilbiss sprayer was used for spraying a solution to both sides of cabbage leaves until runoff. Reference plants (solvent check) were sprayed with the diluent only. Treated plants were held in a holding room for three days at approximately 25° C. and 40% relative humidity (RH) prior to grading. Evaluation was conducted by counting the number of live aphids per plant under a microscope. Insecticidal activity was measured by using Abbott's correction formula are presented in Table 2: Corrected % Control=100*(X−Y)/X
where • X=No. of live aphids on solvent check plants • Y=No. of live aphids on treated plants

[3] = system: corn earworm (CEW; Helicoverpa zea: Lepidoptera); experiment: Insecticidal test for corn earworm, 128-well diet tray assay
Experimental: Insecticidal Test for Corn Earworm (Helicoverpa zea)
as §1, with “corn earworm (CEW; Helicoverpa zea:” for “beet armyworm (BAW; Spodoptera exigua:”, “CEW” for “BAW”

SMILES	% Mortality BAW 50 μg/cm^2 [1]	% Mortality GPA 200 ppm [2]	% Mortality CEW 50 μg/cm^2 [3]
CC(OC(=O)Nc1ccc(-c2ncn(-c3ccc(OC(F)(F)F)cc3)n2)cc1)c1ccc(Cl)nc1 (stereo not drawn) [Compound 56]	A (50-100)	B (Less than 80)	A (50-100)
CC(OC(=O)Nc1ccc(-c2ncn(-c3ccc(OC(F)(F)F)cc3)n2)cc1)c1cnc(C(F)(F)F)nc1 (stereo not drawn) [Compound 57]	A (50-100)	B (Less than 80)	A (50-100)
COCC(OC(=O)Nc1ccc(-c2ncn(-c3ccc(OC(F)(F)F)cc3)n2)cc1)c1ccccc1 (stereo not drawn) [Compound 58]	A (50-100)	B (Less than 80)	A (50-100)
CC(OC(=O)Nc1ccc(-c2ncn(-c3ccc(OC(F)(F)F)cc3)n2)cc1)c1ccccc1 (stereo not drawn) [Compound 59]	A (50-100)	B (Less than 80)	A (50-100)
CCC(OC(=O)Nc1ccc(-c2ncn(-c3ccc(OC(F)(F)F)cc3)n2)cc1)c1cccc(Br)c1 (stereo not drawn) [Compound 63]	A (50-100)	B (Less than 80)	A (50-100)
CC(OC(=O)Nc1ccc(-c2ncn(-c3ccc(OC(F)(F)F)cc3)n2)cc1)c1ccc(OC(F)(F)F)cc1 (stereo not drawn) [Compound 64]	A (50-100)	B (Less than 80)	A (50-100)
CCC(OC(=O)Nc1ccc(-c2ncn(-c3ccc(OC(F)(F)F)cc3)n2)cc1)c1cccc(Cl)c1 (stereo not drawn) [Compound 65]	A (50-100)	B (Less than 80)	A (50-100)
C#CC(OC(=O)Nc1ccc(-c2ncn(-c3ccc(OC(F)(F)F)cc3)n2)cc1)c1ccc(C(F)(F)F)cc1 (stereo not drawn) [Compound 66]	A (50-100)	B (Less than 80)	A (50-100)
CCC(OC(=O)Nc1ccc(-c2ncn(-c3ccc(OC(F)(F)F)cc3)n2)cc1)c1ccc(C(F)(F)F)cc1 (stereo not drawn) [Compound 67]	A (50-100)	B (Less than 80)	A (50-100)
CC(OC(=O)Nc1ccc(-c2ncn(-c3ccc(OC(F)(F)F)cc3)n2)cc1)c1cccc(C(F)(F)F)c1 (stereo not drawn) [Compound 68]	A (50-100)	B (Less than 80)	A (50-100)
CC(OC(=O)Nc1ccc(-c2ncn(-c3ccc(OC(F)(F)F)cc3)n2)cc1)c1ccccc1C(F)(F)F (stereo not drawn) [Compound 69]	A (50-100)	B (Less than 80)	A (50-100)
C=CC(OC(=O)Nc1ccc(-c2ncn(-c3ccc(OC(F)(F)F)cc3)n2)cc1)c1ccccc1 (stereo not drawn) [Compound 70]	A (50-100)	B (Less than 80)	A (50-100)
CCCCC(OC(=O)Nc1ccc(-c2ncn(-c3ccc(OC(F)(F)F)cc3)n2)cc1)c1ccccc1 (stereo not drawn) [Compound 71]	A (50-100)	B (Less than 80)	A (50-100)
CC#CC(OC(=O)Nc1ccc(-c2ncn(-c3ccc(OC(F)(F)F)cc3)n2)cc1)c1ccccc1 (stereo not drawn) [Compound 72]	A (50-100)	B (Less than 80)	A (50-100)
CC(OC(=O)Nc1ccc(-c2ncn(-c3ccc(OC(F)(F)F)cc3)n2)cc1)c1c(Cl)cccc1Cl (stereo not drawn) [Compound 73]	A (50-100)	B (Less than 80)	A (50-100)
CCCC(OC(=O)Nc1ccc(-c2ncn(-c3ccc(OC(F)(F)F)cc3)n2)cc1)c1ccccc1 (stereo not drawn) [Compound 74]	A (50-100)	B (Less than 80)	A (50-100)
CC(OC(=O)Nc1ccc(-c2ncn(-c3ccc(OC(F)(F)F)cc3)n2)cc1)c1ccc(S(C)(=O)=O)cc1 (stereo not drawn) [Compound 75]	A (50-100)	B (Less than 80)	A (50-100)

SMILES	% Mortality BAW 50 μg/cm^2 [1]	% Mortality GPA 200 ppm [2]	% Mortality CEW 50 μg/cm^2 [3]
CC(OC(=O)Nc1ccc(-c2ncn(-c3ccc(OC(F)(F)F)cc3)n2)cc1)c1cccs1 (stereo not drawn) [Compound 76]	A (50-100)	B (Less than 80)	A (50-100)
CC(OC(=O)Nc1ccc(-c2ncn(-c3ccc(OC(F)(F)F)cc3)n2)cc1)c1ccsc1 (stereo not drawn) [Compound 77]	A (50-100)	B (Less than 80)	A (50-100)
CC(C)CC(OC(=O)Nc1ccc(-c2ncn(-c3ccc(OC(F)(F)F)cc3)n2)cc1)c1ccccc1 (stereo not drawn) [Compound 78]	A (50-100)	B (Less than 80)	A (50-100)
CCC(OC(=O)Nc1ccc(-c2ncn(-c3ccc(OC(F)(F)F)cc3)n2)cc1)c1ccc(F)cc1 (stereo not drawn) [Compound 79]	A (50-100)	B (Less than 80)	A (50-100)
O=C(Nc1ccc(-c2ncn(-c3ccc(OC(F)(F)F)cc3)n2)cc1)OC(c1ccoc1)C(F)(F)F (stereo not drawn) [Compound 80]	A (50-100)	B (Less than 80)	A (50-100)
CC(OC(=O)Nc1ccc(-c2ncn(-c3ccc(OC(F)(F)F)cc3)n2)cc1)c1ccc(Cl)cc1 (stereo not drawn) [Compound 81]	A (50-100)	B (Less than 80)	A (50-100)
C#CC(OC(=O)Nc1ccc(-c2ncn(-c3ccc(OC(F)(F)F)cc3)n2)cc1)c1ccccc1 (stereo not drawn) [Compound 82]	A (50-100)	B (Less than 80)	A (50-100)
O=C(Nc1ccc(-c2ncn(-c3ccc(OC(F)(F)F)cc3)n2)cc1)OC(c1ccccc1)c1ccccc1 [Compound 83]	A (50-100)	B (Less than 80)	A (50-100)
CC(OC(=O)Nc1ccc(-c2ncn(-c3ccc(OC(F)(F)F)cc3)n2)cc1)c1ccc(F)cc1 (stereo not drawn) [Compound 84]	A (50-100)	B (Less than 80)	A (50-100)
CCC(OC(=O)Nc1ccc(-c2ncn(-c3ccc(OC(F)(F)F)cc3)n2)cc1)c1ccccc1 (stereo not drawn) [Compound 85]	A (50-100)	B (Less than 80)	A (50-100)
Cc1noc(C)c1C(C)OC(=O)Nc1ccc(-c2ncn(-c3ccc(OC(F)(F)F)cc3)n2)cc1 (stereo not drawn) [Compound 86]	A (50-100)	B (Less than 80)	A (50-100)
CC(C)OC(=O)Nc1ccc(-c2ncn(-c3ccc(OC(F)(F)F)cc3)n2)cc1 [Compound 87]	A (50-100)	B (Less than 80)	B (Less than 50)
O=C(Nc1ccc(-c2ncn(-c3ccc(OC(F)(F)F)cc3)n2)cc1)OC(c1ccccc1)C1CC1 (stereo not drawn) [Compound 88]	A (50-100)	B (Less than 80)	A (50-100)
Cc1cccc(C)c1C(C)OC(=O)Nc1ccc(-c2ncn(-c3ccc(OC(F)(F)F)cc3)n2)cc1 (stereo not drawn) [Compound 89]	A (50-100)	B (Less than 80)	A (50-100)
O=C(Nc1ccc(-c2ncn(-c3ccc(OC(F)(F)F)cc3)n2)cc1)OC(c1ccccc1)C(F)(F)F (stereo not drawn) [Compound 90]	A (50-100)	B (Less than 80)	A (50-100)
Cc1ccc(C(C)OC(=O)Nc2ccc(-c3ncn(-c4ccc(OC(F)(F)F)cc4)n3)cc2)cc1 (stereo not drawn) [Compound 91]	A (50-100)	B (Less than 80)	A (50-100)
Cc1cccc(C(C)OC(=O)Nc2ccc(-c3ncn(-c4ccc(OC(F)(F)F)cc4)n3)cc2)c1 (stereo not drawn) [Compound 92]	A (50-100)	B (Less than 80)	A (50-100)
